Test results as given in PubChem BioAssay AID1745844 (Carcinogenic Potency Database (CPDB), 2022).
Several values for one entry are separate records, joined by “and”; a condition that tells them apart may be missing. Identical values can stand only once. Activity calls are given as the source filed them. How the calls were made is not given here.

Test system: rodent lifetime carcinogenesis bioassay, tumor incidence TD50
Experiment: carcinogenic potency in animals, long-term in vivo studies, CPDB compilation (AID 1745844)

In the case of `Nc1c(F)c(N)c(F)c(F)c1F`, the TD50 (mouse, strain CD-1 HaM/ICR, females, in feed, site: liver, lesion: several types, types named in the paper, dosed 77 weeks, study length 94 weeks) is reported as 6500 mg/kg/day (inactive), the carcinogen call (mouse, strain CD-1 HaM/ICR, females, in feed, site: lung, lesion: several types, types named in the paper, dosed 77 weeks, study length 94 weeks) is reported as “negative (inactive)” and the TD50 (mouse, strain CD-1 HaM/ICR, males, in feed, site: any site (literature study), lesion: several types, types named in the paper, dosed 77 weeks, study length 94 weeks) is reported as 331 mg/kg/day. For the same compound, the TD50 (mouse, strain CD-1 HaM/ICR, males, in feed, site: liver, lesion: hepatoma, dosed 77 weeks, study length 94 weeks) was 86.3 mg/kg/day and 109 mg/kg/day, the TD50 (mouse, strain CD-1 HaM/ICR, males, in feed, site: liver, lesion: several types, types named in the paper, dosed 77 weeks, study length 94 weeks) was 78.3 mg/kg/day and the TD50 (mouse, strain CD-1 HaM/ICR, males, in feed, site: lung, lesion: several types, types named in the paper, dosed 77 weeks, study length 94 weeks) was 1130 mg/kg/day (inactive). For the same compound, the TD50 (rat, strain Charles River CD (Sprague-Dawley), males, in feed, site: any site (literature study), lesion: several types, types named in the paper, dosed 77 weeks, study length 98 weeks) was 14.6 mg/kg/day (inactive) and the carcinogen call (rat, strain Charles River CD (Sprague-Dawley), males, in feed, site: liver, lesion: several types, types named in the paper, dosed 77 weeks, study length 98 weeks) was “negative (inactive)”.
`Nc1nc(N)nc(-c2cc(Cl)ccc2Cl)n1` was tested, and the carcinogen call (rat, strain Wistar, males, in feed, site: liver, lesion: one or several types, types not named, dosed 55 weeks, study length 55 weeks) was “negative (inactive)”.
For `COc1cc(CNC(=O)CCCC/C=C/C(C)C)ccc1O`, the carcinogen call (mouse, strain B6C3F1, females, in feed, site: any site (literature study), lesion: several types, types named in the paper, dosed 79 weeks, study length 83 weeks) was “negative (inactive)”, the carcinogen call (mouse, strain B6C3F1, females, in feed, site: liver, lesion: several types, types named in the paper, dosed 79 weeks, study length 83 weeks) was “negative (inactive)” and the carcinogen call (mouse, strain B6C3F1, females, in feed, site: lung, lesion: adenoma, dosed 79 weeks, study length 83 weeks) was “negative (inactive)”. For the same compound, the TD50 (mouse, strain B6C3F1, males, in feed, site: any site (literature study), lesion: several types, types named in the paper, dosed 79 weeks, study length 83 weeks) was 2040 mg/kg/day (inactive), the carcinogen call (mouse, strain B6C3F1, males, in feed, site: liver, lesion: several types, types named in the paper, dosed 79 weeks, study length 83 weeks) was “negative (inactive)” and the TD50 (mouse, strain B6C3F1, males, in feed, site: lung, lesion: adenoma, dosed 79 weeks, study length 83 weeks) was 16100 mg/kg/day (inactive). For the same compound, the TD50 (mouse, strain Swiss albino, females, in feed, site: cecum, lesion: polypoid adenoma, dosed 152 weeks, study length 152 weeks) was 167 mg/kg/day, the TD50 (mouse, strain Swiss albino, females, in feed, site: duodenum, lesion: adenocarcinoma, dosed 152 weeks, study length 152 weeks) was 2310 mg/kg/day and the TD50 (mouse, strain Swiss albino, females, in feed, site: lung, lesion: adenoma, dosed 152 weeks, study length 152 weeks) was 225 mg/kg/day. For the same compound, the TD50 (mouse, strain Swiss albino, females, in feed, site: lung, lesion: several types, types named in the paper, dosed 152 weeks, study length 152 weeks) was 1080 mg/kg/day, the carcinogen call (mouse, strain Swiss albino, males, in feed, site: cecum, lesion: polypoid adenoma, dosed 124 weeks, study length 124 weeks) was “positive” and the TD50 (mouse, strain Swiss albino, males, in feed, site: duodenum, lesion: several types, types named in the paper, dosed 124 weeks, study length 124 weeks) was 404 mg/kg/day.
`C[C@]12C=CC(=O)C=C1CC[C@@H]1[C@@H]2[C@@H](O)C[C@@]2(C)[C@H]1CC[C@]2(O)C(=O)COC(=O)CCCc1ccc(N(CCCl)CCCl)cc1` was tested, and the TD50 (rat, strain Sprague-Dawley, females, by gavage, site: any site (literature study), lesion: benign tumor, dosed 78 weeks, study length 104 weeks) was 14 mg/kg/day (inactive), the TD50 (rat, strain Sprague-Dawley, females, by gavage, site: any site (literature study), lesion: malignant tumor, dosed 78 weeks, study length 104 weeks) was 21.6 mg/kg/day (inactive) and the TD50 (rat, strain Sprague-Dawley, females, by gavage, site: external auditory canal, lesion: squamous-cell carcinoma, dosed 78 weeks, study length 104 weeks) was 19.2 mg/kg/day.
In the case of `O=[N+]([O-])c1ccc2nc[nH]c2c1`, the TD50 (mouse, strain B6C3F1, females, in feed, site: any site (literature study), lesion: several types, types named in the paper, dosed 78 weeks, study length 95 weeks) is reported as 429 mg/kg/day, the TD50 (mouse, strain B6C3F1, females, in feed, site: liver, lesion: hepatocellular adenoma + hepatocellular carcinoma + neoplastic nodule, dosed 78 weeks, study length 95 weeks) is reported as 354 mg/kg/day and the TD50 (mouse, strain B6C3F1, females, in feed, site: liver, lesion: hepatocellular adenoma + hepatocellular carcinoma, dosed 78 weeks, study length 95 weeks) is reported as 354 mg/kg/day. The TD50 (mouse, strain B6C3F1, females, in feed, site: liver, lesion: hepatocellular carcinoma, dosed 78 weeks, study length 95 weeks) was 762 mg/kg/day, the TD50 (mouse, strain B6C3F1, females, in feed, site: pituitary gland, lesion: adenoma, NOS + chromophobe adenoma, dosed 78 weeks, study length 95 weeks) was 335 mg/kg/day and the TD50 (mouse, strain B6C3F1, males, in feed, site: any site (literature study), lesion: several types, types named in the paper, dosed 78 weeks, study length 95 weeks) was 1980 mg/kg/day. The TD50 (mouse, strain B6C3F1, males, in feed, site: liver, lesion: hepatocellular adenoma + hepatocellular carcinoma + neoplastic nodule, dosed 78 weeks, study length 95 weeks) was 392 mg/kg/day, the TD50 (mouse, strain B6C3F1, males, in feed, site: liver, lesion: hepatocellular adenoma + hepatocellular carcinoma, dosed 78 weeks, study length 95 weeks) was 392 mg/kg/day and the TD50 (mouse, strain B6C3F1, males, in feed, site: liver, lesion: hepatocellular carcinoma, dosed 78 weeks, study length 95 weeks) was 423 mg/kg/day. The carcinogen call (rat, strain Fischer 344, females, in feed, site: any site (literature study), lesion: several types, types named in the paper, dosed 78 weeks, study length 105 weeks) was “negative (inactive)”, the carcinogen call (rat, strain Fischer 344, males, in feed, site: any site (literature study), lesion: several types, types named in the paper, dosed 78 weeks, study length 105 weeks) was “negative (inactive)” and the TD50 (rat, strain Fischer 344, males, in feed, site: liver, lesion: hepatocellular adenoma + hepatocellular carcinoma + neoplastic nodule, dosed 78 weeks, study length 105 weeks) was 8830 mg/kg/day.
`C=C1C[C@]23C[C@@]1(O)CC[C@H]2[C@@]12C=C[C@H](O)[C@@](C)(C(=O)O1)[C@H]2[C@@H]3C(=O)O` was tested, and the carcinogen call (mouse, strain B6AKF1, females, oral dosing, site: any site (literature study), lesion: several types, types named in the paper, dosed 76 weeks, study length 76 weeks) was “negative (inactive)”, the carcinogen call (mouse, strain B6AKF1, females, oral dosing, site: liver, lesion: hepatoma, dosed 76 weeks, study length 76 weeks) was “negative (inactive)” and the carcinogen call (mouse, strain B6AKF1, females, oral dosing, site: lung, lesion: adenoma, dosed 76 weeks, study length 76 weeks) was “negative (inactive)”. For the same compound, the TD50 (mouse, strain B6AKF1, males, oral dosing, site: any site (literature study), lesion: several types, types named in the paper, dosed 76 weeks, study length 76 weeks) was 151 mg/kg/day (inactive), the TD50 (mouse, strain B6AKF1, males, oral dosing, site: liver, lesion: hepatoma, dosed 76 weeks, study length 76 weeks) was 316 mg/kg/day (inactive) and the TD50 (mouse, strain B6AKF1, males, oral dosing, site: lung, lesion: several types, types named in the paper, dosed 76 weeks, study length 76 weeks) was 460 mg/kg/day (inactive). For the same compound, the TD50 (mouse, strain B6C3F1, females, oral dosing, site: any site (literature study), lesion: several types, types named in the paper, dosed 76 weeks, study length 76 weeks) was 1150 mg/kg/day (inactive), the carcinogen call (mouse, strain B6C3F1, females, oral dosing, site: liver, lesion: hepatoma, dosed 76 weeks, study length 76 weeks) was “negative (inactive)” and the carcinogen call (mouse, strain B6C3F1, females, oral dosing, site: lung, lesion: several types, types named in the paper, dosed 76 weeks, study length 76 weeks) was “negative (inactive)”. For the same compound, the TD50 (mouse, strain B6C3F1, males, oral dosing, site: any site (literature study), lesion: several types, types named in the paper, dosed 76 weeks, study length 76 weeks) was 214 mg/kg/day (inactive), the TD50 (mouse, strain B6C3F1, males, oral dosing, site: liver, lesion: hepatoma, dosed 76 weeks, study length 76 weeks) was 460 mg/kg/day (inactive) and the TD50 (mouse, strain B6C3F1, males, oral dosing, site: lung, lesion: adenoma, dosed 76 weeks, study length 76 weeks) was 952 mg/kg/day (inactive).
For `COCCl`, the TD50 (hamster, strain Syrian Golden, males, inhaled, site: lung, lesion: adenocarcinoma, dosed 113 weeks, study length 124 weeks) was 32.9 mg/kg/day, the TD50 (hamster, strain Syrian Golden, males, inhaled, site: several sites, sites named in the paper, lesion: several types, types named in the paper, dosed 113 weeks, study length 124 weeks) was 16.4 mg/kg/day and the TD50 (rat, strain Sprague-Dawley, males, inhaled, site: several sites, sites named in the paper, lesion: several types, types named in the paper, dosed 113 weeks, study length 122 weeks) was 5.5 mg/kg/day.
`S=c1nc[nH]c2nc[nH]c12` was tested, and the TD50 (rat, strain BR 46, males, i.v., site: any site (literature study), lesion: several types, types named in the paper, dosed 52 weeks, study length 104 weeks) was 58.1 mg/kg/day (inactive), the TD50 (rat, strain F344/DuCrj, females, in feed, site: adrenal gland, lesion: pheochromocytoma, dosed 104 weeks, study length 113 weeks) was 22.5 mg/kg/day and the TD50 (rat, strain F344/DuCrj, females, in feed, site: any site (literature study), lesion: malignant tumor, dosed 104 weeks, study length 113 weeks) was 10.3 mg/kg/day. For the same compound, the TD50 (rat, strain F344/DuCrj, females, in feed, site: any site (literature study), lesion: several types, types named in the paper, dosed 104 weeks, study length 113 weeks) was 4.74 mg/kg/day, the TD50 (rat, strain F344/DuCrj, females, in feed, site: central nervous system, lesion: several types, types named in the paper, dosed 104 weeks, study length 113 weeks) was 34.1 mg/kg/day and the TD50 (rat, strain F344/DuCrj, females, in feed, site: liver, lesion: hepatocellular carcinoma, dosed 104 weeks, study length 113 weeks) was 139 mg/kg/day. The TD50 (rat, strain F344/DuCrj, females, in feed, site: uterus, lesion: adenocarcinoma, dosed 104 weeks, study length 113 weeks) was 34.1 mg/kg/day.
For `ClCc1ccccn1`, the TD50 (mouse, strain B6C3F1, females, by gavage, site: any site (literature study), lesion: several types, types named in the paper, dosed 99 weeks, study length 104 weeks) was 9790 mg/kg/day (inactive), the TD50 (mouse, strain B6C3F1, females, by gavage, site: lung, lesion: alveolar/bronchiolar adenoma + alveolar/bronchiolar carcinoma, dosed 99 weeks, study length 104 weeks) was 2170 mg/kg/day and the carcinogen call (mouse, strain B6C3F1, males, by gavage, site: any site (literature study), lesion: several types, types named in the paper, dosed 99 weeks, study length 104 weeks) was “negative (inactive)”. For the same compound, the TD50 (mouse, strain B6C3F1, males, by gavage, site: lung, lesion: alveolar/bronchiolar adenoma + alveolar/bronchiolar carcinoma, dosed 99 weeks, study length 104 weeks) was 2940 mg/kg/day, the TD50 (rat, strain Fischer 344, females, by gavage, site: any site (literature study), lesion: several types, types named in the paper, dosed 99 weeks, study length 105 weeks) was 114 mg/kg/day (inactive) and the TD50 (rat, strain Fischer 344, males, by gavage, site: any site (literature study), lesion: several types, types named in the paper, dosed 99 weeks, study length 105 weeks) was 671 mg/kg/day. The TD50 (rat, strain Fischer 344, males, by gavage, site: subcutaneous tissue, lesion: fibroma, dosed 99 weeks, study length 105 weeks) was 515 mg/kg/day (inactive).
With `CC(O)CN(CC(C)O)N=O` (centres undefined) the TD50 (rat, strain Fischer 344, females, in drinking water, site: esophagus, lesion: carcinoma, dosed 42 weeks, study length 55 weeks) was 1.25 mg/kg/day, the TD50 (rat, strain Fischer 344, females, in drinking water, site: esophagus, lesion: several types, types named in the paper, dosed 42 weeks, study length 55 weeks) was 0.813 mg/kg/day and the TD50 (rat, strain Fischer 344, females, in drinking water, site: nasal cavity, lesion: olfactory carcinoma, dosed 42 weeks, study length 55 weeks) was 3.04 mg/kg/day. The TD50 (rat, strain MRC-Wistar, males, by gavage, site: prostate, lesion: carcinoma, dosed 74 weeks, study length 74 weeks) was 437 mg/kg/day, the TD50 (rat, strain Wistar, males, in drinking water, site: liver, lesion: hemangioma, dosed 45 weeks, study length 52 weeks) was 4.55 mg/kg/day and the TD50 (rat, strain Wistar, males, in drinking water, site: liver, lesion: hepatocellular carcinoma, dosed 45 weeks, study length 52 weeks) was 2.4 mg/kg/day. It also gave a TD50 (rat, strain Wistar, males, in drinking water, site: lung, lesion: adenocarcinoma, dosed 45 weeks, study length 52 weeks) of 3.36 mg/kg/day, a TD50 (rat, strain Wistar, males, in drinking water, site: lung, lesion: adenoma, dosed 45 weeks, study length 52 weeks) of 0.881 mg/kg/day and a TD50 (rat, strain Wistar, males, in drinking water, site: lung, lesion: carcinoma, combined glandular and squamous type, dosed 45 weeks, study length 52 weeks) of 9.48 mg/kg/day.
